According to PubChem BioAssay (NCI):
“And” between values parts separate entries of the source, which are not always exact repeats. Equal entries are not always repeated.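 A five-concentration, 48-hour dose response in 96-well plates underlies each endpoint, interpolated linearly between surrounding concentrations. At the GI50, growth is halved. TGI: concentration producing complete growth inhibition.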

How the values were obtained:
Assay in all cases: NCI-60 cell line screen, 48 h
MDA-MB-468 breast = tested on: MDA-MB-468 breast
786-0 renal = tested on: 786-0 renal
A498 renal = tested on: A498 renal
A549 NSCLC = tested on: A549 NSCLC
ACHN renal = tested on: ACHN renal
BT-549 breast = tested on: BT-549 breast
CAKI-1 renal = tested on: CAKI-1 renal
CCRF-CEM leukemia = tested on: CCRF-CEM leukemia
COLO 205 colon = tested on: COLO 205 colon
DU-145 prostate = tested on: DU-145 prostate
EKVX NSCLC = tested on: EKVX NSCLC
HCC-2998 colon = tested on: HCC-2998 colon
HCT-116 colon = tested on: HCT-116 colon
HCT-15 colon = tested on: HCT-15 colon
HL-60(TB) leukemia = tested on: HL-60(TB) leukemia
HOP-62 NSCLC = tested on: HOP-62 NSCLC
HOP-92 NSCLC = tested on: HOP-92 NSCLC
HS 578T breast = tested on: HS 578T breast
HT29 colon = tested on: HT29 colon
IGROV1 ovarian = tested on: IGROV1 ovarian
K-562 leukemia = tested on: K-562 leukemia
KM12 colon = tested on: KM12 colon
LOX IMVI melanoma = tested on: LOX IMVI melanoma
M14 melanoma = tested on: M14 melanoma
MALME-3M melanoma = tested on: MALME-3M melanoma
MCF7 breast = tested on: MCF7 breast
MDA-MB-231 breast = tested on: MDA-MB-231 breast
MDA-MB-435 = tested on: MDA-MB-435
MOLT-4 leukemia = tested on: MOLT-4 leukemia
NCI-H226 lung = tested on: NCI-H226 lung
NCI-H23 lung = tested on: NCI-H23 lung
NCI-H460 lung = tested on: NCI-H460 lung
NCI-H522 lung = tested on: NCI-H522 lung
NCI/ADR-RES ovarian = tested on: NCI/ADR-RES ovarian
OVCAR-3 ovarian = tested on: OVCAR-3 ovarian
OVCAR-4 ovarian = tested on: OVCAR-4 ovarian
OVCAR-5 ovarian = tested on: OVCAR-5 ovarian
OVCAR-8 ovarian = tested on: OVCAR-8 ovarian
PC-3 prostate = tested on: PC-3 prostate
RPMI-8226 leukemia = tested on: RPMI-8226 leukemia
RXF 393 renal = tested on: RXF 393 renal
SF-268 CNS = tested on: SF-268 CNS
SF-295 CNS = tested on: SF-295 CNS
SF-539 CNS = tested on: SF-539 CNS
SK-MEL-2 melanoma = tested on: SK-MEL-2 melanoma
SK-MEL-28 melanoma = tested on: SK-MEL-28 melanoma
SK-MEL-5 melanoma = tested on: SK-MEL-5 melanoma
SK-OV-3 ovarian = tested on: SK-OV-3 ovarian
SN12C renal = tested on: SN12C renal
SNB-19 CNS = tested on: SNB-19 CNS
SNB-75 CNS = tested on: SNB-75 CNS
SR leukemia = tested on: SR leukemia
SW-620 colon = tested on: SW-620 colon
T-47D breast = tested on: T-47D breast
TK-10 renal = tested on: TK-10 renal
U251 CNS = tested on: U251 CNS
UACC-257 melanoma = tested on: UACC-257 melanoma
UACC-62 melanoma = tested on: UACC-62 melanoma
UO-31 renal = tested on: UO-31 renal

## CCN(CC)c1ccc(/C=C/C2=[N+](C)c3ccccc3C2(C)C)c(C)c1
MDA-MB-468 breast
  GI50: < 0.019 µM
  TGI: 0.181 µM

## CC(C)(C)c1ccc(C(=O)Nc2sc3c(c2C(N)=O)CCC(O)C3)cc1 (stereo unspecified)
MDA-MB-468 breast
  GI50: 3.01 µM
  TGI: 12.6 µM

## Fc1ccc2nc(-c3cc(-c4ccc5c(c4)OCO5)n[nH]3)[nH]c2c1
MDA-MB-468 breast
  GI50: 3.58 µM
  TGI: > 80.8 µM

## CN(C)S(=O)(=O)c1oc(-c2ccccc2)nc1C#N
MDA-MB-468 breast
  GI50: 12.3 µM
  TGI: 32.9 µM

## Clc1nncc2sc(-c3ccccc3)nc12
MDA-MB-468 breast
  GI50: 14.4 µM
  TGI: 69.5 µM

## COc1ccc(-n2nc(C)c3c(Nc4ccc(NC(=O)Nc5ccc(Cl)c(C(F)(F)F)c5)cc4)ncnc32)cc1
MDA-MB-468 breast
  GI50: 1.88 µM
  TGI: 4.62 µM

## c1cnn2ncc(-c3ccnc(Nc4ccc5c(c4)OCCO5)n3)c2c1
MDA-MB-468 breast
  GI50: 0.0594 µM
  TGI: 0.18 µM

## O=C1/C(=C/c2ccc([N+](=O)[O-])cc2)COc2ccc(O)cc21
MDA-MB-468 breast
  GI50: 2.23 µM
  TGI: 7.6 µM

## Clc1ccc2c(c1)N(c1ncnc3ccc(-c4cnc5[nH]ncc5c4)cc13)CC2
MDA-MB-468 breast
  GI50: 0.217 µM
  TGI: 1.47 µM

## COc1ccc(C2=C(N3CCc4ccccc43)C(=O)NC2=O)cc1
MDA-MB-468 breast
  GI50: 18 µM
  TGI: > 25 µM

## Cc1ccc(-n2nc(C(C)(C)C)cc2NC(=O)NCc2cc(F)ccc2Oc2ccc3c(cnn3CCO)c2)cc1
MDA-MB-468 breast
  GI50: 6.55 µM and 3.58 µM
  TGI: > 65.9 µM

## CCN(CC)CCOc1ccc(C(=C(C)c2ccc(OC)cc2)c2ccc(OCCN(CC)CC)cc2)cc1
MDA-MB-468 breast
  GI50: 0.83 µM
  TGI: 1.86 µM

## O=C(/C=C/c1cccc(O)c1)c1cccc(-n2cc(-c3ccc4ccccc4c3)[nH]c2=O)c1
MDA-MB-468 breast
  GI50: 2.86 µM
  TGI: 12.8 µM

## OCc1ccc(N2CCOCC2)cc1Cl
MDA-MB-468 breast
  GI50: 0.732 µM
  TGI: 3.1 µM

## COc1ccc(NC(=O)Cn2c(/C=C/c3cccc(Br)c3)nc3ccccc3c2=O)cc1
786-0 renal
  GI50: 4.9 µM
  TGI: 14.8 µM
A498 renal
  GI50: 9.71 µM
  TGI: 32.5 µM
A549 NSCLC
  GI50: 11.4 µM
  TGI: > 36 µM
ACHN renal
  GI50: 1.75 µM
  TGI: 12.2 µM
BT-549 breast
  GI50: 3.62 µM
  TGI: > 36 µM
CAKI-1 renal
  GI50: 14 µM
  TGI: > 36 µM
CCRF-CEM leukemia
  GI50: > 36 µM
  TGI: > 36 µM
COLO 205 colon
  GI50: > 36 µM
  TGI: > 36 µM
DU-145 prostate
  GI50: 13.5 µM
  TGI: > 36 µM
EKVX NSCLC
  GI50: > 36 µM
  TGI: > 36 µM
HCC-2998 colon
  GI50: > 36 µM
  TGI: > 36 µM
HCT-116 colon
  GI50: 5.67 µM
  TGI: > 36 µM
HCT-15 colon
  GI50: > 36 µM
  TGI: > 36 µM
HL-60(TB) leukemia
  GI50: > 36 µM
  TGI: > 36 µM
HOP-62 NSCLC
  GI50: 6.47 µM
  TGI: 21 µM
HOP-92 NSCLC
  GI50: 8.66 µM
  TGI: 32.6 µM
HS 578T breast
  GI50: 2.73 µM
  TGI: 30.8 µM
HT29 colon
  GI50: > 36 µM
  TGI: > 36 µM
IGROV1 ovarian
  GI50: > 36 µM
  TGI: > 36 µM
K-562 leukemia
  GI50: > 36 µM
  TGI: > 36 µM
KM12 colon
  GI50: > 36 µM
  TGI: > 36 µM
LOX IMVI melanoma
  GI50: 3.02 µM
  TGI: > 36 µM
M14 melanoma
  GI50: 31.8 µM
  TGI: > 36 µM
MALME-3M melanoma
  GI50: 6.56 µM
  TGI: 27 µM
MCF7 breast
  GI50: 8.56 µM
  TGI: > 36 µM
MDA-MB-231 breast
  GI50: 1.93 µM
  TGI: 8.8 µM
MDA-MB-435
  GI50: > 36 µM
  TGI: > 36 µM
MDA-MB-468 breast
  GI50: 6.25 µM
  TGI: > 36 µM
MOLT-4 leukemia
  GI50: > 36 µM
  TGI: > 36 µM
NCI-H226 lung
  GI50: 1.69 µM
  TGI: 9.64 µM
NCI-H23 lung
  GI50: 10.5 µM
  TGI: > 36 µM
NCI-H460 lung
  GI50: 15.7 µM
  TGI: > 36 µM
NCI-H522 lung
  GI50: 17.6 µM
  TGI: > 36 µM
NCI/ADR-RES ovarian
  GI50: 7.1 µM
  TGI: > 36 µM
OVCAR-3 ovarian
  GI50: 10.6 µM
  TGI: > 36 µM
OVCAR-4 ovarian
  GI50: 2.17 µM
  TGI: 9.94 µM
OVCAR-5 ovarian
  GI50: 15.6 µM
  TGI: > 36 µM
OVCAR-8 ovarian
  GI50: 10.5 µM
  TGI: > 36 µM
PC-3 prostate
  GI50: > 36 µM
  TGI: > 36 µM
RPMI-8226 leukemia
  GI50: > 36 µM
  TGI: > 36 µM
RXF 393 renal
  GI50: 4.39 µM
  TGI: 17.6 µM
SF-268 CNS
  GI50: 13.9 µM
  TGI: > 36 µM
SF-295 CNS
  GI50: 6.79 µM
  TGI: > 36 µM
SF-539 CNS
  GI50: 2.94 µM
  TGI: 8.06 µM
SK-MEL-2 melanoma
  GI50: > 36 µM
  TGI: > 36 µM
SK-MEL-28 melanoma
  GI50: > 36 µM
  TGI: > 36 µM
SK-MEL-5 melanoma
  GI50: > 36 µM
  TGI: > 36 µM
SK-OV-3 ovarian
  GI50: 7.25 µM
  TGI: 27.5 µM
SN12C renal
  GI50: 14.8 µM
  TGI: > 36 µM
SNB-19 CNS
  GI50: 11.4 µM
  TGI: > 36 µM
SNB-75 CNS
  GI50: 0.801 µM
  TGI: 3.27 µM
SR leukemia
  GI50: 1.06 µM
  TGI: > 36 µM
SW-620 colon
  GI50: > 36 µM
  TGI: > 36 µM
T-47D breast
  GI50: > 36 µM
  TGI: > 36 µM
TK-10 renal
  GI50: 5.4 µM
  TGI: 13.4 µM
U251 CNS
  GI50: 4.68 µM
  TGI: 13.5 µM
UACC-257 melanoma
  GI50: > 36 µM
  TGI: > 36 µM
UACC-62 melanoma
  GI50: > 36 µM
  TGI: > 36 µM
UO-31 renal
  GI50: 4.41 µM
  TGI: 15.4 µM
